{
  "source": "ChEMBL document CHEMBL5584268",
  "about": "“Dactylfungins and Tetralones: Bioactive Metabolites from a Nematode-Associated Laburnicola nematophila” (J Nat Prod, 2024)",
  "key": {"Cryptococcus neoformans [1]": {"system": "Cryptococcus neoformans", "assay": "Antimicrobial activity against Cryptococcus neoformans CCF 1081 up to 67 ug/ml measured after 48 hrs by serial dilution assay", "type": "functional, organism-based", "conditions": "dose <= 67.0 µg/ml"}, "Candida albicans [2]": {"system": "Candida albicans", "assay": "Antimicrobial activity against Candida albicans CCM 8215 up to 67 ug/ml measured after 12 hrs by serial dilution assay", "type": "functional, organism-based", "conditions": "dose <= 67.0 µg/ml"}, "Aspergillus fumigatus [3]": {"system": "Aspergillus fumigatus", "assay": "Antimicrobial activity against Aspergillus fumigatus ATCC 204305 measured after 72 hrs by serial dilution assay", "type": "functional"}, "Aspergillus fumigatus [4]": {"system": "Aspergillus fumigatus", "assay": "Antimicrobial activity against azole-resistant Aspergillus fumigatus CCF 6651 up to 67 ug/ml measured after 72 hrs by serial dilution assay", "type": "functional, organism-based", "conditions": "dose <= 67.0 µg/ml"}, "Mucor plumbeus [5]": {"system": "Mucor plumbeus", "assay": "Antimicrobial activity against Mucor plumbeus CCF 2612 up to 67 ug/ml measured after 48 hrs by serial dilution assay", "type": "functional, organism-based", "conditions": "dose <= 67.0 µg/ml"}, "Aspergillus fumigatus [6]": {"system": "Aspergillus fumigatus", "assay": "Antimicrobial activity against azole-resistant Aspergillus fumigatus CCF 6674 measured after 72 hrs by serial dilution assay", "type": "functional"}, "Caenorhabditis elegans": {"system": "Caenorhabditis elegans", "assay": "Nematicidal activity against Caenorhabditis elegans at 10 to 100 ug/ml incubated for 18 hrs by stereomicroscopic analysis", "type": "functional, organism-based", "conditions": "dose 10-100 µg/ml"}, "Rhodotorula glutinis [7]": {"system": "Rhodotorula glutinis", "assay": "Antimicrobial activity against Rhodotorula glutinis DSM 10134 up to 67 ug/ml measured after 72 hrs by serial dilution assay", "type": "functional, organism-based", "conditions": "dose <= 67.0 µg/ml"}, "Staphylococcus aureus [8]": {"system": "Staphylococcus aureus", "assay": "Antimicrobial activity against Staphylococcus aureus DSM 346 up to 67 ug/ml measured after 72 hrs by serial dilution assay", "type": "functional, organism-based", "conditions": "dose <= 67.0 µg/ml"}, "KB 3-1": {"system": "KB 3-1", "assay": "Cytotoxicity against human KB-3-1 cells by MTT assay", "type": "functional, cell-based"}, "L929": {"system": "L929", "assay": "Cytotoxicity against mouse L929 cells by MTT assay", "type": "toxicity, cell-based"}, "Cryptococcus neoformans [9]": {"system": "Cryptococcus neoformans", "assay": "Antimicrobial activity against Cryptococcus neoformans CCF 1081 measured after 48 hrs by serial dilution assay", "type": "functional"}, "Staphylococcus aureus [10]": {"system": "Staphylococcus aureus", "assay": "Antimicrobial activity against Staphylococcus aureus DSM 346 measured after 72 hrs by serial dilution assay", "type": "functional"}, "Rhodotorula glutinis [11]": {"system": "Rhodotorula glutinis", "assay": "Antimicrobial activity against Rhodotorula glutinis DSM 10134 measured after 72 hrs by serial dilution assay", "type": "functional"}, "Aspergillus fumigatus [12]": {"system": "Aspergillus fumigatus", "assay": "Antimicrobial activity against azole-resistant Aspergillus fumigatus CCF 6651 measured after 72 hrs by serial dilution assay", "type": "functional"}, "Aspergillus fumigatus [13]": {"system": "Aspergillus fumigatus", "assay": "Antimicrobial activity against Aspergillus fumigatus CCF 3522 measured after 48 hrs by serial dilution assay", "type": "functional"}, "Candida albicans [14]": {"system": "Candida albicans", "assay": "Antimicrobial activity against Candida albicans CCM 8215 measured after 12 hrs by serial dilution assay", "type": "functional"}, "Mucor plumbeus [15]": {"system": "Mucor plumbeus", "assay": "Antimicrobial activity against Mucor plumbeus CCF 2612 measured after 48 hrs by serial dilution assay", "type": "functional"}},
  "note": "The source made the active and inactive calls. The calls are words filed in the database; no cut-off is given here.",
  "data": [
    {"compound": "CC[C@H](C)[C@H](O)[C@@H](C)/C=C(C)/C=C/C[C@H](C)[C@H](O)[C@@H](C)/C=C(C)/C=C/[C@H](O)C(C)(C)c1cc(O)c([C@H]2O[C@@H](CO)C[C@@H](O)[C@@H]2O)c(=O)o1", "values": [
      {"measurement": "Activity", "setting": "Cryptococcus neoformans [1]", "result": "inactive"},
      {"measurement": "Activity", "setting": "Candida albicans [2]", "result": "inactive"},
      {"measurement": "MIC", "setting": "Aspergillus fumigatus [3]", "result": 0.26, "unit": "µg/mL"},
      {"measurement": "Activity", "setting": "Aspergillus fumigatus [4]", "result": "inactive"},
      {"measurement": "Activity", "setting": "Mucor plumbeus [5]", "result": "inactive"},
      {"measurement": "MIC", "setting": "Aspergillus fumigatus [6]", "result": 16.6, "unit": "µg/mL"},
      {"measurement": "Activity", "setting": "Caenorhabditis elegans", "result": "inactive"},
      {"measurement": "Activity", "setting": "Rhodotorula glutinis [7]", "result": "inactive"},
      {"measurement": "Activity", "setting": "Staphylococcus aureus [8]", "result": "inactive"}
    ]},
    {"compound": "COc1cc2c(c(O)c1CO)C(=O)CC[C@H]2O", "values": [
      {"measurement": "Activity", "setting": "KB 3-1", "result": "inactive"},
      {"measurement": "Activity", "setting": "Caenorhabditis elegans", "result": "inactive"},
      {"measurement": "Activity", "setting": "Rhodotorula glutinis [7]", "result": "inactive"},
      {"measurement": "Activity", "setting": "L929", "result": "Non-Toxic"},
      {"measurement": "Activity", "setting": "Staphylococcus aureus [8]", "result": "inactive"}
    ]},
    {"compound": "CC[C@H](C)C[C@@H](C)/C=C(C)/C=C/C[C@H](C)[C@H](O)[C@@H](C)/C=C(C)/C=C/[C@H](O)C(C)(C)c1cc(O)c([C@H]2O[C@@H](CO)C[C@@H](O)[C@@H]2O)c(=O)o1", "values": [
      {"measurement": "MIC", "setting": "Cryptococcus neoformans [9]", "result": 4.15, "unit": "µg/mL"},
      {"measurement": "Activity", "setting": "Candida albicans [2]", "result": "inactive"},
      {"measurement": "MIC", "setting": "Staphylococcus aureus [10]", "result": 66.6, "unit": "µg/mL"},
      {"measurement": "MIC", "setting": "Aspergillus fumigatus [3]", "result": 0.52, "unit": "µg/mL"},
      {"measurement": "MIC", "setting": "Rhodotorula glutinis [11]", "result": 8.3, "unit": "µg/mL"},
      {"measurement": "Activity", "setting": "Mucor plumbeus [5]", "result": "inactive"},
      {"measurement": "MIC", "setting": "Aspergillus fumigatus [6]", "result": 0.52, "unit": "µg/mL"},
      {"measurement": "Activity", "setting": "Caenorhabditis elegans", "result": "inactive"},
      {"measurement": "MIC", "setting": "Aspergillus fumigatus [12]", "result": 2.08, "unit": "µg/mL"},
      {"measurement": "MIC", "setting": "Aspergillus fumigatus [13]", "result": 0.52, "unit": "µg/mL"}
    ]},
    {"compound": "COc1cc2c(c(O)c1Cc1c(O)c(O)c3cc(C)oc(=O)c3c1O)C(=O)CC[C@H]2O", "values": [
      {"measurement": "Activity", "setting": "KB 3-1", "result": "Active"},
      {"measurement": "Activity", "setting": "Caenorhabditis elegans", "result": "inactive"},
      {"measurement": "Activity", "setting": "Rhodotorula glutinis [7]", "result": "inactive"},
      {"measurement": "Activity", "setting": "L929", "result": "Toxic"},
      {"measurement": "Activity", "setting": "Staphylococcus aureus [8]", "result": "inactive"}
    ]},
    {"compound": "COc1cc2c(c(O)c1/C=C/C(C)=O)C(=O)CC[C@H]2O", "values": [
      {"measurement": "Activity", "setting": "KB 3-1", "result": "Active"},
      {"measurement": "Activity", "setting": "Caenorhabditis elegans", "result": "inactive"},
      {"measurement": "Activity", "setting": "Rhodotorula glutinis [7]", "result": "inactive"},
      {"measurement": "Activity", "setting": "L929", "result": "Toxic"},
      {"measurement": "Activity", "setting": "Staphylococcus aureus [8]", "result": "inactive"}
    ]},
    {"compound": "GENTAMICIN", "values": [
      {"measurement": "MIC", "setting": "Staphylococcus aureus [10]", "result": 0.21, "unit": "µg/mL"}
    ]},
    {"compound": "NYSTATIN", "values": [
      {"measurement": "MIC", "setting": "Rhodotorula glutinis [11]", "result": 4.2, "unit": "µg/mL"}
    ]},
    {"compound": "CC[C@H](C)C[C@@H](C)/C=C(C)/C=C/C[C@H](C)[C@H](O)[C@@H](C)/C=C(C)/C=C/[C@H](O)[C@@H](C)c1cc(O)c([C@H]2O[C@@H](CO)C[C@@H](O)[C@@H]2O)c(=O)o1", "values": [
      {"measurement": "MIC", "setting": "Cryptococcus neoformans [9]", "result": 4.15, "unit": "µg/mL"},
      {"measurement": "MIC", "setting": "Aspergillus fumigatus [3]", "result": 8.32, "unit": "µg/mL"},
      {"measurement": "MIC", "setting": "Aspergillus fumigatus [6]", "result": 0.52, "unit": "µg/mL"},
      {"measurement": "MIC", "setting": "Candida albicans [14]", "result": 8.3, "unit": "µg/mL"},
      {"measurement": "MIC", "setting": "Mucor plumbeus [15]", "result": 1.04, "unit": "µg/mL"},
      {"measurement": "MIC", "setting": "Aspergillus fumigatus [12]", "result": 0.52, "unit": "µg/mL"}
    ]},
    {"compound": "C[C@@H]1[C@H](O)[C@@H](C)/C=C/C=C/C=C/C=C/C=C/C=C/C=C/[C@H](O[C@@H]2O[C@H](C)[C@@H](O)[C@H](N)[C@@H]2O)C[C@@H]2O[C@](O)(C[C@@H](O)C[C@@H](O)[C@H](O)CC[C@@H](O)C[C@@H](O)CC(=O)O[C@H]1C)C[C@H](O)[C@H]2C(=O)O", "note": "[AMPHOTERICIN B]", "values": [
      {"measurement": "MIC", "setting": "Cryptococcus neoformans [9]", "result": 2.5, "unit": "µg/mL"},
      {"measurement": "MIC", "setting": "Aspergillus fumigatus [3]", "result": 0.31, "unit": "µg/mL"},
      {"measurement": "MIC", "setting": "Aspergillus fumigatus [6]", "result": 2.5, "unit": "µg/mL"},
      {"measurement": "MIC", "setting": "Mucor plumbeus [15]", "result": 0.31, "unit": "µg/mL"},
      {"measurement": "MIC", "setting": "Aspergillus fumigatus [12]", "result": 0.16, "unit": "µg/mL"},
      {"measurement": "MIC", "setting": "Aspergillus fumigatus [13]", "result": 0.31, "unit": "µg/mL"}
    ]}
  ]
}
